Data set [1] can be described thus: solubility in mixtures of polar organic solvents with water. The format is physicochemical. The source says: It has recently been discovered that the (S)-epimer of gemcitabine-[phenyl-benzoxy-L-alaninyl)]-phosphate has sufficient solubility in mixtures of a number of polar organic solvents with water to render it suitable for formulation and administration as a therapeutic agent. […] In certain solvent mixtures the difference in solubility between the (S)-epimer and the (R)-epimer is over 100 fold. It is expected therefore that more clinically effective, practical and patient friendly administration methods can be developed using the (S)-epimer than can be developed using the (R)-epimer or using the mixture. It is thus desirable to be able to provide gemcitabine-[phenyl-benzoxy-L-alaninyl)]-(S)-phosphate in substantially diastereoisomerically pure form.

Data set [2] deals with isolated human hepatic cells. As to the kind of experiment: half-life on incubation with isolated human hepatic cells. Format: in vitro ADME. The text has this: The longer half-life associated with (R)-isomer indicates a lower intrinsic clearance and should result in a different pharmacokinetic and pharmacodynamic profile to the (S)-isomer which may offer some benefits.

A short description of data set [3]: solubility in water. The format is physicochemical. The settings on record: regardless of salt content or pH. How it is done: NUC-1031 is extremely lipophillic and thus poorly water soluble (by calculation: <0.1 mg/mL), and the ionisable moieties have calculated pKas which lie out-side the pH range suitable for parenteral administration. […] It also has implications for the development of efficient manufacturing processes which will allow NUC-1031 to be produced cost effectively.

Regarding `C[C@H](N[P@@](=O)(OC[C@H]1O[C@@H](n2ccc(N)nc2=O)C(F)(F)C1O)Oc1ccccc1)C(=O)OCc1ccccc1` (stereo partly drawn) [(R)-epimer], in data set [1] (mixtures of polar organic solvents with water), the “solubility relative to the (S)-epimer” value is listed as “considerably lower”. Also, the “half-life relative to that of the (S)-epimer” value in data set [2] is “four times”.

As for `C[C@H](N[P@](=O)(OC[C@H]1O[C@@H](n2ccc(N)nc2=O)C(F)(F)C1O)Oc1ccccc1)C(=O)OCc1ccccc1` (stereo partly drawn) [(S)-epimer], the “difference in solubility between the (S)-epimer and the (R)-epimer” value in data set [1] (in certain solvent mixtures (polar organic solvents with water), (S)-epimer over (R)-epimer) is “over 100 fold”.

For the compound `C[C@H](NP(=O)(OC[C@H]1O[C@@H](n2ccc(N)nc2=O)C(F)(F)C1O)Oc1ccccc1)C(=O)OCc1ccccc1` (stereo partly drawn) [NUC-1031, 2′-deoxy-2′,2′-difluoro-D-cytidine-5′-O-[phenyl(benzoxy-L-alaninyl)] phosphate], the solubility in water result in data set [3] is “essentially insoluble in water”.

For the origin of these results see patent US11603382B2, “Diastereoselective synthesis of phosphate derivatives” (NuCana plc, priority 2015, dated 2023).
